Assay results reported in US20080312271A1, “AZABENZIMIDAZOLYL COMPOUNDS” (Pfizer Inc., priority 2006, published 2008).

target: T1, mGluR2 receptor (metabotropic glutamate receptor 2) (Homo sapiens, UniProt Q14416); experiment: mGluR2 Potentiator Screen, FLIPR, EC10-EC20 glutamate challenge; format: cell-based; settings: not given
T1 construct: expressed in transfected cells
In short: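 Potentiator assay in HEK cells stably expressing mGluR2 with Gα15, glutamine-depleted overnight, loaded with Fluo-4 plus probenecid and GPT/pyruvate to remove glutamate. Peak fluorescence ratio curve-fitted, with maximum set by on-plate standards.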

T1 sequence (Q14416 19-872, species assumed): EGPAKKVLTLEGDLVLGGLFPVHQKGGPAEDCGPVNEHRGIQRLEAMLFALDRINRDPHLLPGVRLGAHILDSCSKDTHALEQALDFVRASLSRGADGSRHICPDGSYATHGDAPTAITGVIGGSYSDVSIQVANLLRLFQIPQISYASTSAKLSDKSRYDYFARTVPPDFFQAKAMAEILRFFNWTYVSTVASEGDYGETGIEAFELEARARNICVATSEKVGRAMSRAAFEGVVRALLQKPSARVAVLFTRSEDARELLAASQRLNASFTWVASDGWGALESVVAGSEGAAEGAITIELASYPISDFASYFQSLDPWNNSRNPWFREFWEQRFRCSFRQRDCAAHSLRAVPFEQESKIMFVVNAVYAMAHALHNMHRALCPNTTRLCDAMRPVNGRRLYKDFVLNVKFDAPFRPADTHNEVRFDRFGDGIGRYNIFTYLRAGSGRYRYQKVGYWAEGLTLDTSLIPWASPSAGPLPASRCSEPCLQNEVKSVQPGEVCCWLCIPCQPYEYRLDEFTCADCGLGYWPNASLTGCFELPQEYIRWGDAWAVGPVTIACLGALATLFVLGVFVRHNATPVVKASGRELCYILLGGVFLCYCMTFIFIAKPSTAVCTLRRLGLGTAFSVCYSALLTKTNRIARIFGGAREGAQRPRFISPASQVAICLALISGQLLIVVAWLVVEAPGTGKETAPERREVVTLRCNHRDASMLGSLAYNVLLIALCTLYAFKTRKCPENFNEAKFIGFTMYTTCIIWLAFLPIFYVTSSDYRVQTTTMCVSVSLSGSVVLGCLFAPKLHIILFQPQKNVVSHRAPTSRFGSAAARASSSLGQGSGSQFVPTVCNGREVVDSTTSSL

Row | Compound | EC50
1 | CCOc1ccc(Cl)cc1C1CCN(Cc2nc3cccnc3n2C)CC1 [compound 42] | 0.501 µM
2 | C#CCOc1ccc(Cl)cc1C1CCN(Cc2nc3ncccc3n2C)CC1 [compound 45] | 0.0726 µM
3 | Cn1c(CN2CCC(c3ccc(C(F)(F)F)cc3)CC2)nc2cnccc21 [compound 47] | 0.168 µM
4 | Cn1c(CN2CCC(c3ccccc3C(F)(F)F)CC2)nc2cnccc21 [compound 48] | 0.481 µM
5 | Cn1c(CN2CCC(c3ccccc3C(F)(F)F)CC2)nc2cccnc21 [compound 50] | 0.406 µM
6 | Cn1c(CN2CCC(c3ccc(C(F)(F)F)cc3)CC2)nc2ncccc21 [compound 52] | 0.0479 µM
7 | Cn1c(CN2CCC(c3ccccc3C(F)(F)F)CC2)nc2ncccc21 [compound 53] | 0.105 µM
8 | COc1ccc(C(F)(F)F)cc1C1CCN(Cc2nc3ncccc3n2C)CC1 [compound 55] | 0.211 µM
9 | COc1ccccc1[C@]1(C)CCN(Cc2nc3ncccc3n2C)C[C@@H]1C [compound 56] | 3.82 µM
10 | Cn1c(CN2CCC(c3cc(C(F)(F)F)ccc3F)CC2)nc2cnccc21 [compound 57] | 0.448 µM
11 | Cn1c(CN2CCC(c3cc(C(F)(F)F)ccc3F)CC2)nc2ncccc21 [compound 58] | 5.95 µM
12 | COc1ccccc1C1CCN(Cc2nc3cccnc3n2C)CC1C (centres unmarked) [compound 59] | 0.349 µM
13 | COc1ccccc1C1CCN(Cc2nc3ncccc3n2C)CC1C (centres unmarked) [compound 60] | 0.302 µM
14 | COc1cc(C(F)(F)F)ccc1C1CCN(Cc2nc3cnccc3n2C)CC1 [compound 63] | 0.834 µM
15 | COc1cc(C(F)(F)F)ccc1C1CCN(Cc2nc3ncccc3n2C)CC1 [compound 64] | 0.0111 µM
16 | Cn1c(CN2CCC(c3cc(C(F)(F)F)cc(C(F)(F)F)c3)CC2)nc2ncccc21 [compound 65] | 0.144 µM
17 | Cn1c(CN2CCC(c3ccc(F)cc3)CC2)nc2ncccc21 [compound 67] | 2.36 µM
18 | CC1CN(Cc2nc3ncccc3n2C)CCC1c1ccccc1F (centres unmarked) [compound 72] | 0.301 µM
19 | Cn1c(CN2CCC(c3cc(Cl)ccc3F)CC2)nc2ncccc21 [compound 75] | 0.324 µM
20 | Cn1c(CN2CCC(c3ccc(C(F)(F)F)cc3)C(C)(C)C2)nc2ncccc21 (centres unmarked) [compound 76] | 0.745 µM
21 | Cn1c(CN2CCC(c3ccccc3C#N)CC2)nc2ncccc21 [compound 77] | > 5.7 µM

Row | Compound | EC50
22 | Cn1c(CN2CCC(c3cccc(Cl)c3)CC2)nc2ncccc21 [compound 78] | 0.88 µM
23 | Cn1c(CN2CCC(c3cccc(C(C)(C)C)c3)CC2)nc2ncccc21 [compound 79] | 0.124 µM
24 | Cn1c(CN2CCC(c3ccc(Cl)cc3)CC2)nc2ncccc21 [compound 80] | > 9.11 µM
25 | COc1ccc(C2CCN(Cc3nc4ncccc4n3C)CC2)cc1 [compound 81] | 9.77 µM
26 | Cn1c(CN2CCC(c3ccc(F)cc3F)CC2)nc2ncccc21 [compound 82] | 0.251 µM
27 | Cn1c(CN2CCC(c3ccc(F)cc3F)CC2)nc2cnccc21 [compound 84] | 0.218 µM
28 | Cn1c(CN2CCC(c3ccc(C(F)(F)F)cc3)C(O)C2)nc2ncccc21 (centres unmarked) [compound 86] | > 2.75 µM
29 | COc1cc(F)ccc1C1CCN(Cc2nc3ncccc3n2C)CC1 [compound 87] | 0.212 µM
30 | COc1cc(F)ccc1C1CCN(Cc2nc3cnccc3n2C)CC1 [compound 88] | 0.372 µM
31 | Cn1c(CN2CCC(c3cc(F)cc(F)c3)CC2)nc2ncccc21 [compound 91] | 0.985 µM
32 | Cn1c(CN2CCC(c3ccc(C(F)(F)F)cc3)CC2)nc2ccncc21 [compound 93] | 0.196 µM
33 | CCOc1ccc(C2CCN(Cc3nc4ncccc4n3C)CC2)cc1 [compound 98] | 2.27 µM
34 | Cn1c(CN2CCC(F)(c3ccc(C(F)(F)F)cc3)CC2)nc2ncccc21 [compound 99] | 0.434 µM
35 | Cn1c(CN2CCC(c3ccc(C(F)(F)F)cc3)C(F)C2)nc2ncccc21 (centres unmarked) [compound 100] | 0.315 µM
36 | Cc1ccc(C2CCN(Cc3nc4ncccc4n3C)CC2)cc1 [compound 104] | 0.71 µM
37 | Cn1c(CN2CCC(c3ccc(Cl)c(F)c3)CC2)nc2ncccc21 [compound 106] | 0.19 µM
38 | Cn1c(CN2CCC(c3cccc(F)c3F)CC2)nc2ncccc21 [compound 108] | 0.307 µM
39 | Cn1c(CN2CCC(c3ccc(Cl)cc3F)CC2)nc2ncccc21 [compound 110] | 0.0271 µM
40 | Cn1c(CN2CCC(c3ccc(Cl)cc3F)CC2)nc2cnccc21 [compound 113] | 0.081 µM
41 | C[C@H]1CN(Cc2nc3ncccc3n2C)CC[C@H]1c1ccc(Cl)cc1F [compound 123] | > 1.81 µM

Next, values leading:

Row | EC50 | Compound
42 | 0.41 µM | CCCOc1ccc(Cl)cc1C1CCN(Cc2nc3cccnc3n2C)CC1 [compound 40]
43 | 4.81 µM | CCOc1ccc(Cl)cc1C1CCN(Cc2nc3ncccc3n2C)CC1 [compound 41]
44 | 0.203 µM | COc1ccc(Cl)cc1C1CCN(Cc2nc3ncccc3n2C)CC1 [compound 43]
45 | > 0.808 µM | COc1ccc(Cl)cc1C1CCN(Cc2nc3cccnc3n2C)CC1 [compound 44]
46 | 1.45 µM | COc1ccccc1C1CCN(Cc2nc3cnccc3n2C)CC1 [compound 46]
47 | 1.05 µM | Cn1c(CN2CCC(c3ccccc3F)CC2)nc2cnccc21 [compound 49]
48 | 1.54 µM | COc1ccccc1C1CCN(Cc2nc3ncccc3n2C)CC1 [compound 51]
49 | 1.59 µM | Cn1c(CN2CCC(c3ccccc3F)CC2)nc2ncccc21 [compound 54]
50 | 0.29 µM | Cc1ccc(C)c(C2CCN(Cc3nc4ncccc4n3C)CC2)c1 [compound 61]
51 | 0.617 µM | Cc1cccc(C2CCN(Cc3nc4ncccc4n3C)CC2)c1 [compound 62]
52 | 0.353 µM | Cc1cc(F)ccc1C1CCN(Cc2nc3ncccc3n2C)CC1 [compound 69]
53 | 0.111 µM | CC1CN(Cc2nc3ncccc3n2C)CCC1c1ccc(C(F)(F)F)cc1 (centres unmarked) [compound 70]
54 | 0.782 µM | Cn1c(CN2CCC(c3cc(F)ccc3F)CC2)nc2ncccc21 [compound 74]
55 | 0.199 µM | Cn1c(CN2CCC(c3ccc(F)cc3F)CC2)nc2cccnc21 [compound 85]
56 | 0.823 µM | Cc1ccccc1C1CCN(Cc2nc3ncccc3n2C)CC1 [compound 89]
57 | 2.8 µM | COc1ccc(C2CCN(Cc3nc4ncccc4n3C)CC2)cc1F [compound 92]
58 | 0.313 µM | Cn1c(CN2CCC(c3ccc(F)c(Cl)c3)CC2)nc2ncccc21 [compound 101]
59 | 0.482 µM | Cn1c(CN2CCC(c3ccc(F)c(Cl)c3)CC2)nc2cnccc21 [compound 102]
60 | 0.367 µM | Cn1c(CN2CCC(c3ccc(F)c(Cl)c3)CC2)nc2cccnc21 [compound 103]
61 | 3.66 µM | Cc1cc(NC(=O)c2cccc(C3CCN(Cc4nc5ncccc5n4C)CC3)c2)n[nH]1 [compound 105]
62 | 0.315 µM | Cn1c(CN2CCC(c3ccc(Cl)c(F)c3)CC2)nc2cnccc21 [compound 107]
63 | 0.378 µM | Cn1c(CN2CCC(c3ccc(Cl)c(F)c3)CC2)nc2cccnc21 [compound 109]
64 | 0.0585 µM | Cn1c(CN2CCC(c3ccc(Cl)cc3F)CC2)nc2cccnc21 [compound 112]
65 | > 0.458 µM | Cn1c(CN2CCC(c3c(F)cccc3C(F)(F)F)CC2)nc2cnccc21 [compound 228]

same assay, conditions: mGluR2 potentiator screen, FLIPR, EC10-EC20 glutamate challenge

Row | EC50 | Compound
66 | 0.212 µM | Cn1c(CN2CCC(c3c(F)cccc3C(F)(F)F)CC2)nc2ncccc21 [compound 229]
67 | 0.0845 µM | Cn1c(CN2CCC(c3ccc(OC(F)(F)F)cc3)CC2)nc2ncccc21 [compound 231]
68 | 0.0508 µM | Cn1c(CN2CCC(c3ccc(C(F)(F)F)cc3F)CC2)nc2cnccc21 [compound 236]
